Laboratory results taken from ChEMBL document CHEMBL3886598, “Pyrazolyl-pyrimidine derivatives as kinase inhibitors” (2016).

Tests used:
[1] = biological target: Tyrosine-protein kinase JAK2 (Homo sapiens, UniProt O60674); assay: JAK2 Enzymatic Assay: The assay has been performed using the commercial available JAK2 kinase domain (Invitrogen, Eugene, Oreg.). […] The JAK2 kinase assay was run with a final enzyme concentration of 1 nM, in the presence of 60 uM ATP, 3 nM 33P-γ-ATP and 64 uM of substrate BioDBn*306 (Aminoacid sequence: LPLDKDYYWREPGQ⿿SEQ ID NO: 1). The peptidic substrate was purchased from American Peptide Company (Sunnyvale, Calif.). Specific JAK2, JAK1 or JAK3 peptide substrates are trans-phosphorylated by JAKs kinase in the presence of ATP traced with 33P-γ-ATP. At the end of the phosphorylation reaction, the unreacted ATP, cold and radioactive, is captured by an excess of Dowex ion exchange resin that eventually settles by gravity to the bottom of the reaction plate. The supernatant is subsequently withdrawn and transferred into a counting plate that is then evaluated by […].
Tyrosine-protein kinase JAK2, sequence (O60674 whole entry, the tested form may be a part): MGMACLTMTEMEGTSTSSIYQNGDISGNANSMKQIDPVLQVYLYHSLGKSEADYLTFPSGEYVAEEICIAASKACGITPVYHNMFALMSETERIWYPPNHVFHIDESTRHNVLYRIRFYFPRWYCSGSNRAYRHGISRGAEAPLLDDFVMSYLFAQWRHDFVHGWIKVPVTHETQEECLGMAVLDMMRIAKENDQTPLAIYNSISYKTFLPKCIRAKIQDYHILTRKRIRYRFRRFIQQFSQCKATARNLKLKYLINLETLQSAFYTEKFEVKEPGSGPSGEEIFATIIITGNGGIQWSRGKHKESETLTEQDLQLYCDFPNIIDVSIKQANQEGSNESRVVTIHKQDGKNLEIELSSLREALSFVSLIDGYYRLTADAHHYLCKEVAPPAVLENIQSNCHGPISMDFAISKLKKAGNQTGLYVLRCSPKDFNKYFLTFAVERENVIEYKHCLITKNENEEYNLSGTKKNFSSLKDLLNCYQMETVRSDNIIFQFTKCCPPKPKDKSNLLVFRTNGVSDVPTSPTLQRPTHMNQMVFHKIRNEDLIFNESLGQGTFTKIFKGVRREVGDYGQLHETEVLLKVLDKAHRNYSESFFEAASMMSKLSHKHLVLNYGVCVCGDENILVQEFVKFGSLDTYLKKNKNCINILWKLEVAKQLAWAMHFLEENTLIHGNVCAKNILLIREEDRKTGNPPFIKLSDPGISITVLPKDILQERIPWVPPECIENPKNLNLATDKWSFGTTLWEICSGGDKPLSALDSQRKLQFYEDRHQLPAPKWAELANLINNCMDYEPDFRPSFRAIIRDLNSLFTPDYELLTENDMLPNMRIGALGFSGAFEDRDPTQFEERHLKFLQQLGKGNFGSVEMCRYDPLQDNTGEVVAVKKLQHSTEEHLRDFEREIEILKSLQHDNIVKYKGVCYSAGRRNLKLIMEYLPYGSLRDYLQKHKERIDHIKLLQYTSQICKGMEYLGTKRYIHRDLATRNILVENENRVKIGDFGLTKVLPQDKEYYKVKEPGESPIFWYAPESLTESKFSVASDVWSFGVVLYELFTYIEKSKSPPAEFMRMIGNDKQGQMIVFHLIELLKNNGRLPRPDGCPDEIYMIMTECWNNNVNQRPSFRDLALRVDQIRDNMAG

[2] = biological target: T1, Tyrosine-protein kinase JAK3 (Homo sapiens, UniProt P52333); assay: JAK3 Enzymatic Assay: The assay has been performed using the JAK3 kinase domain (residues 781-1124 of the 1124 amino acid long full-length sequence, accession number P52333 of UniProtKB/Swiss-Prot databse). […] The JAK3 kinase assay was run with a final enzyme concentration of 1 nM, in the presence of 22 uM ATP, 1 nM 33P-γ-ATP and 40 uM of substrate BioDBn*306 (Amino acid sequence: LPLDKDYYWREPGQ-SEQ ID NO: 1). The peptidic substrate was purchased from American Peptide Company (Sunnyvale, Calif.).
T1 sequence (P52333 whole entry): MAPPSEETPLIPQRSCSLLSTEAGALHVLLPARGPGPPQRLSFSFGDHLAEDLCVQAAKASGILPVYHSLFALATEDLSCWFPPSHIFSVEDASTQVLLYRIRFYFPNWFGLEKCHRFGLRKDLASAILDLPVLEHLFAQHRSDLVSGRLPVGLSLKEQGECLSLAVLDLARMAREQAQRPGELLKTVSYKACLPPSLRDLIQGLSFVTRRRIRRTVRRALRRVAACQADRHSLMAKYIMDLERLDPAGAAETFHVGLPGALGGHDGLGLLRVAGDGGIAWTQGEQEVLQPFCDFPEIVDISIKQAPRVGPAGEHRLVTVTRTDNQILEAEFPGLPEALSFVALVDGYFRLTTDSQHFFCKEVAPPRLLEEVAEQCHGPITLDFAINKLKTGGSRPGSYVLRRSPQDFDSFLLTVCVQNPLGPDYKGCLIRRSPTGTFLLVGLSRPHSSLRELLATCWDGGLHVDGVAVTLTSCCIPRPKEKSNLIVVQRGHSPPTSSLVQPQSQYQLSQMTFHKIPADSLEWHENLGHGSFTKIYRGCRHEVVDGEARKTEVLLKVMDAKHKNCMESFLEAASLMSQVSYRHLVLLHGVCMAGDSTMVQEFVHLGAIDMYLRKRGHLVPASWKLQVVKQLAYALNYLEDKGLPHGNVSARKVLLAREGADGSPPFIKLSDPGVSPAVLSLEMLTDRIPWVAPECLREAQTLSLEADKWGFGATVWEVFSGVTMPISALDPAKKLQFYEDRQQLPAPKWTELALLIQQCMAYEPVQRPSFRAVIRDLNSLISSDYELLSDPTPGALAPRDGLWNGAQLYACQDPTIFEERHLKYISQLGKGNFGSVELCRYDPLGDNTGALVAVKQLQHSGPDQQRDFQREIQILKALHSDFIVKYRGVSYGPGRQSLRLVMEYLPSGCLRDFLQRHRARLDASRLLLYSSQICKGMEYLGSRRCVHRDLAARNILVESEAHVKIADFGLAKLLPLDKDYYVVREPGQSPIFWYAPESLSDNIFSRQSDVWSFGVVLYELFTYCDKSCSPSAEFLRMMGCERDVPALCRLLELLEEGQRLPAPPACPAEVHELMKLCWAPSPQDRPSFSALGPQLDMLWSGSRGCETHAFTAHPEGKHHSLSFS

IC50 [1]: < 5 µM
IC50 [2]: < 5 µM
SMILES: CCc1ccc(Cl)cc1-n1nc(-c2ccnc(N)n2)cc1C(N)=O
